Read-outs that look alike come from different tables or passages of the source.
What was measured:
JAK2V617F = assay: JAK2V617F-induced myelofibrosis mouse model; format: in vivo, BALB/c mice; settings: 30 mg/Kg, oral twice a day, after 8 weeks of treatment
Text: JAK2 mutant JAK2V617F gene vector MSCV-JAK2V617F-GFP (Chengdu Wandao Biotechnology Development Co., Ltd.) and BALB/c mice (Jiangsu Jicui Yaokang Biotechnology Co., Ltd.) were provided as donors. The mouse bone marrow cells were sampled and infected with JAK2V617F virus, and the infected cells were reinfused into BALB/c recipient mice irradiated by X-rays through tail vein. Then, the JAK2V617F-positive myelofibrosis mouse model was induced. […] The administration route was oral administration twice a day, and the mice in the blank control group and the model group took the same volume of normal saline orally. […] Therefore, modifications or improvements made without departing from the spirit of the present invention are within the scope of protection of the present invention.

JAK3 = biological target: T1, JAK3 (Homo sapiens, UniProt P52333); assay: In vitro kinase activity experiment, JAK3; format: biochemical
T1 construct: purchased Eurofins
T1 sequence (P52333 1-1124): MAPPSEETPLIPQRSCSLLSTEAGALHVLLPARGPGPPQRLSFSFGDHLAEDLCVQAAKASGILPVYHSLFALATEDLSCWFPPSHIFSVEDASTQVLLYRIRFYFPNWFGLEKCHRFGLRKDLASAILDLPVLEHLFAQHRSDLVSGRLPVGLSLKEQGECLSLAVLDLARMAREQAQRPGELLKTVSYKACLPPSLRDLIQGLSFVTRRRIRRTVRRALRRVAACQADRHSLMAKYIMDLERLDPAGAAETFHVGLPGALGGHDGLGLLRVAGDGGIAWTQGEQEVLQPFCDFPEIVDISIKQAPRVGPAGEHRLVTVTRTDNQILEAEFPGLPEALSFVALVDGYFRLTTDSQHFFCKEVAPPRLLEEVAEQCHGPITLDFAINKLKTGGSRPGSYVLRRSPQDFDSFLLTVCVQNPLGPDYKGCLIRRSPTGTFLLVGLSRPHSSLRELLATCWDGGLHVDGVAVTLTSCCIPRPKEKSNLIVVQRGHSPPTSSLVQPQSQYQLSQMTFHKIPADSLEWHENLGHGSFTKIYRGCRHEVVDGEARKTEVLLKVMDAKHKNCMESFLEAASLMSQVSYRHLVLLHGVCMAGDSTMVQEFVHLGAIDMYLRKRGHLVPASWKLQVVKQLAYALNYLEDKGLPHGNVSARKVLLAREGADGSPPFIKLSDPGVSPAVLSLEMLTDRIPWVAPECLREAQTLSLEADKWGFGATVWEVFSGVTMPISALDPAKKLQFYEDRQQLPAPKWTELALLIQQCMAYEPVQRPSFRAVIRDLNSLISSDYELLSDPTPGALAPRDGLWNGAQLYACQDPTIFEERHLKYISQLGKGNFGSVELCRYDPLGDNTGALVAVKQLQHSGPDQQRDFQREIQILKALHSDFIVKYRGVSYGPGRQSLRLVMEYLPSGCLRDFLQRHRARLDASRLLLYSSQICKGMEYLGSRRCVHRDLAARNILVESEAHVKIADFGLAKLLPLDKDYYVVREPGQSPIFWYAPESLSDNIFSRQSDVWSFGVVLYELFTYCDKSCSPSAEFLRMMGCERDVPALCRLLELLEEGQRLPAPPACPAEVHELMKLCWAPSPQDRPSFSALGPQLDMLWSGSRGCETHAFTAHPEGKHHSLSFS
Experimental: Buffer solution ([…], pH 7.0, 0.2 mm EDTA, 10 mM mncl2), kinase to be tested, substrate of kinase to be tested, 10 mM magnesium acetate and γ33P-ATP solution, and compounds with different concentrations were added to a reaction tube in turn, then MgATP was added to initiate the enzyme reaction process, and incubated at room temperature for 40 min. Then, the reaction was terminated with 5 μl of […], and 10 μl of the reaction solution was titrated onto the Filtermat A membrane, washed with 75 mM phosphate solution for three times, each time for 5 min., and then washed with methanol once. Finally, the Filtermat A membrane was dried and the scintillation count was carried out.

[1] = system: Ba/F3-EpoR-JAK2V617F cells; assay: Ba/F3-EpoR-JAK2V617F-driven malignant tumor mouse model; format: in vivo, Babl/c-nude mice; settings: oral twice a day
Experimental: Babl/c-nude mice (Beijing Huafukang Biotechnology Co., Ltd.) were received and acclimated to the environment until these mice were normalized in diet and activity, and the modeling began. Ba/F3-EpoR-JAK2V617F cells (State Key Laboratory of Biotherapy, Sichuan University) were routinely incubated and grew to 80% fusion degree. Then the cells were centrifuged at 1000 rpm for 3 min., collected, resuspended by PBS and counted by a cell counter; while the survival rate of the cells was calculated. Only when the proportion of living cells exceeds 90%, can the cells be used in the experiment, with the cell concentration adjusted to 1×10^7 cells/mL. After the cells were collected, the cell suspension was pre-cooled on ice. Each mouse was inoculated as per 1.0×10^6, and batch induction modeling was carried out.

SET-2 cells = format: in vivo; settings: for Tumor inhibition rate (%): SET-2 model, oral
Experimental: (§1) MV4-11 cells and SET-2 cells were used to establish a mouse xenograft model to investigate the efficacy. NOD/SCID immunocompromised mice (purchased from Beijing Huafukang Biotechnology Co., Ltd.) were received and acclimated to the environment until they were normalized in diet and activity. MV4-11 and SET-2 cells were routinely incubated and grew to 80% fusion degree. Then, the cells were collected and counted on a blood cell counting plate, with the cell concentration adjusted to 3×10^7 cells/mL. After the cells were collected, 100 μL of cell suspension was inoculated subcutaneously on the back of mice. When the tumor volume reached 100 mm^3, the drug administration was started. The dosage regimen was oral administration every day. […].

MV4-11 cells = format: in vivo; settings: for Tumor inhibition rate (%): MV4-11 model, oral, QD × 6
Experimental: as §1

JAK2 = biological target: T2, JAK2 (Homo sapiens, UniProt O60674); assay: In vitro kinase activity experiment, JAK2; format: biochemical; settings: inhibition rate of enzyme at 500 nM; measured by Eurofins
T2 construct: purchased Eurofins
Method in brief: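 Radiometric filter-binding assay: kinase, its substrate and compound in 8 mM MOPS pH 7.0, 0.2 mM EDTA, 10 mM MnCl2, with 10 mM magnesium acetate and γ33P-ATP; MgATP started the reaction, 40 min at room temperature. Stopped with 3% phosphate, spotted on Filtermat A, washed, scintillation counted.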

T2 sequence (O60674 whole entry): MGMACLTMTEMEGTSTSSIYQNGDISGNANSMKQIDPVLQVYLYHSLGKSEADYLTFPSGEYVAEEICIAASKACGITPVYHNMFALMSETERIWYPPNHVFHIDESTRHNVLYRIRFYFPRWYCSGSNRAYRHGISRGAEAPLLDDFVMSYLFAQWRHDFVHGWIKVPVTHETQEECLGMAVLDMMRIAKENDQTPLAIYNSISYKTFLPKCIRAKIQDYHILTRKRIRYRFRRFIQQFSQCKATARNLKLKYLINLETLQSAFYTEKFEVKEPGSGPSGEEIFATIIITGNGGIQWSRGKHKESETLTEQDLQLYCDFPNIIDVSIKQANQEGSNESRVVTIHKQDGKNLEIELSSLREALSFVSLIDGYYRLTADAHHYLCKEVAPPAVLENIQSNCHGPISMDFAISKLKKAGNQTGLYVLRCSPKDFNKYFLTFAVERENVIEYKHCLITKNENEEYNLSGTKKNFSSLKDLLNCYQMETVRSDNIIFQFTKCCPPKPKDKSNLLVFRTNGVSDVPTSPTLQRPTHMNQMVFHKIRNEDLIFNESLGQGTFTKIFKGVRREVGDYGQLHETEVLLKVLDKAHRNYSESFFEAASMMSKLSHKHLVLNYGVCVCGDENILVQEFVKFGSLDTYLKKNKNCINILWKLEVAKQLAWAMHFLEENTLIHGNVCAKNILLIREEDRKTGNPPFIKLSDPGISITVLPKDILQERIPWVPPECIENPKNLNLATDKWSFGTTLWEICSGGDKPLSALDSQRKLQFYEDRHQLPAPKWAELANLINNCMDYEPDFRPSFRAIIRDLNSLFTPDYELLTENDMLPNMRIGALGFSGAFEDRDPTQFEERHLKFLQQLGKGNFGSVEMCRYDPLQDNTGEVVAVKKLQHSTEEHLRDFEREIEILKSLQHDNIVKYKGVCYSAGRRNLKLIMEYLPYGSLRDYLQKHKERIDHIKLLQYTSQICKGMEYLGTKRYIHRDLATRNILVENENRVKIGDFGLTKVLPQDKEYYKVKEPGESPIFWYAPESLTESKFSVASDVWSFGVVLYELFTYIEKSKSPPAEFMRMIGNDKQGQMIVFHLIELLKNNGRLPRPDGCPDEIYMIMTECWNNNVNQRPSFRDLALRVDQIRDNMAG

Cc1cnc(Nc2ccc(N3CCC(N(C)CCO)CC3)c(F)c2)nc1-c1cnn(C(C)C)c1 [CLJ-44, 5-methyl-N-(3-fluoro-4-(4-N-hydroxyethyl-4-N-methylaminopiperidine-1-yl)phenyl)-4-(1-isopropyl-1H-pyrazole-4-yl) pyrimidine-2-amine]
inhibition of growth rate of spleen (JAK2V617F): 96.73%
IC50 (JAK3): 0.046 µM
inhibition of spleen growth ([1]; 7.5 mg/Kg): 18.74%
inhibition of spleen growth ([1]; 15 mg/Kg): 35.67%
inhibition of spleen growth ([1]; 30 mg/Kg): 79.79%
inhibition of spleen growth ([1]; 45 mg/Kg): 101.08%
spleen weight ([1]; 45 mg/Kg): restored to the weight of a normal mouse
Tumor inhibition rate (%) (SET-2 cells; 30 mg/kg): 66%
Tumor inhibition rate (%) (SET-2 cells; 60 mg/kg): 85%
tolerability, effect on body weight (SET-2 cells; mouse, in vivo): well tolerated and has no adverse effect on body weight
Tumor inhibition rate (%) (MV4-11 cells; 30 mg/kg): 58%
Tumor inhibition rate (%) (MV4-11 cells; 60 mg/kg): 93%
tolerability, effect on body weight (MV4-11 cells; mouse, in vivo): well tolerated and has no adverse effect on body weight
Kinase activity @ 500 nM (%) JAK2 (JAK2): 100%

Reference: patent US12428394B2, “2,4-disubstituted pyrimidine derivative, preparation method therefor and use thereof” (CHENGDU ZENITAR BIOMEDICAL TECHNOLOGY CO., LTD., priority 2019, dated 2025)
